The results in this text go back to ChEMBL document CHEMBL5465560, “Selectivity Literature for EUbOPEN Chemogenomic Library” (2024).

Assay [1] has as its target Receptor tyrosine-protein kinase erbB-4 (Homo sapiens, UniProt Q15303). Briefly: Selectivity interaction (Kinase panel (Z-LYTE Assay)) EUB0001632a ERBB4. Conditions: at 10 µM.
The target of assay [2] is Platelet-derived growth factor receptor beta (Homo sapiens, UniProt P09619). The assay can be described thus: Selectivity interaction (Kinase panel (enzymatic assay)) EUB0000595a PDGFRB.
Assay [3] addresses Mitogen-activated protein kinase 14 (Homo sapiens, UniProt Q16539). Briefly: Selectivity interaction (ActivX KiNativ screen (ex vivo kinase selectivity in human PBMCs)) EUB0001619a MAPK14. The format is cell-based. Conditions: PBMC, at 1 µM.
Assay [4] deals with D(4) dopamine receptor (Homo sapiens) (UniProt P21917). The assay can be described thus: Selectivity interaction (Eurofins CEREP Diversity Profile (receptors and ion channels)) EUB0000279b DRD4. Conditions: at 10 µM.
Assay [5] addresses Serine/threonine-protein kinase MARK2 (Homo sapiens) (UniProt Q7KZI7). Conditions: at 10 µM.
For assay [6], the target named is Ribosomal protein S6 kinase alpha-4 (Homo sapiens) (UniProt O75676). The following applies: at 10 µM.
Assay [7] addresses T1, Megakaryocyte-associated tyrosine-protein kinase (Homo sapiens) (UniProt P42679).
T1 sequence (whole entry): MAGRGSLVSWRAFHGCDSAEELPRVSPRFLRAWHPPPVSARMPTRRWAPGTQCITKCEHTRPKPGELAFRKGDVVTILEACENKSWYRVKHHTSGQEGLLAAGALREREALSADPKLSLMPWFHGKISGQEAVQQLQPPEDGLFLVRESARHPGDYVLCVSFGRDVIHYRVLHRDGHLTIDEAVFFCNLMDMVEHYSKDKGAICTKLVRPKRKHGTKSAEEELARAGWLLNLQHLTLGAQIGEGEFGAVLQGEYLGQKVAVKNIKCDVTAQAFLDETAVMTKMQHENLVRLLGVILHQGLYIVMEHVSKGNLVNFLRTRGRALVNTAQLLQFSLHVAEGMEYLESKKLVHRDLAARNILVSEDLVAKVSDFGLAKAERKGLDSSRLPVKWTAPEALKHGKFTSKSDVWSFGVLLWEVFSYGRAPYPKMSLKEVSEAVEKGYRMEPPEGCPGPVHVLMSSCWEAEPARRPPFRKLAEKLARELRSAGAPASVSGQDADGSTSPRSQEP
The assay can be described thus: Selectivity interaction (ProQinase) EUB0000171b MATK.

The target in assay [8] is Protein-tyrosine kinase 6 (Homo sapiens, UniProt Q13882). The assay can be described thus: Selectivity interaction (ProQinase) EUB0000171b PTK6.
For assay [9], the target named is Serine/threonine-protein kinase 38-like (Homo sapiens) (UniProt Q9Y2H1). The assay can be described thus: Selectivity interaction (Ambit KINOMEscan and KiNATiv profiling in Jurkat cells) EUB0000090b STK38L. Type of assay: cell-based. Conditions: at 1 µM.
The target of assay [10] is Vascular endothelial growth factor receptor 2 (Homo sapiens, UniProt P35968). Briefly: Selectivity interaction (Upstate Kinase Profiler service (Millipore)) EUB0000056c KDR. Conditions: at 1 µM.
For assay [11], the target named is Bromodomain-containing protein 9 (Homo sapiens) (UniProt Q9H8M2). Briefly: Selectivity interaction (Bromodomain panel (DSF asssay)) EUB0000270b BRD9.
Assay [12] addresses Casein kinase I isoform delta (Homo sapiens, UniProt P48730). Briefly: Selectivity interaction (KinomeScan (DiscoverX)) EUB0000618a CSNK1D. The following applies: at 10 µM.
The target of assay [13] is T2, Ephrin type-B receptor 1 (Homo sapiens) (UniProt P54762).
T2 sequence (whole entry): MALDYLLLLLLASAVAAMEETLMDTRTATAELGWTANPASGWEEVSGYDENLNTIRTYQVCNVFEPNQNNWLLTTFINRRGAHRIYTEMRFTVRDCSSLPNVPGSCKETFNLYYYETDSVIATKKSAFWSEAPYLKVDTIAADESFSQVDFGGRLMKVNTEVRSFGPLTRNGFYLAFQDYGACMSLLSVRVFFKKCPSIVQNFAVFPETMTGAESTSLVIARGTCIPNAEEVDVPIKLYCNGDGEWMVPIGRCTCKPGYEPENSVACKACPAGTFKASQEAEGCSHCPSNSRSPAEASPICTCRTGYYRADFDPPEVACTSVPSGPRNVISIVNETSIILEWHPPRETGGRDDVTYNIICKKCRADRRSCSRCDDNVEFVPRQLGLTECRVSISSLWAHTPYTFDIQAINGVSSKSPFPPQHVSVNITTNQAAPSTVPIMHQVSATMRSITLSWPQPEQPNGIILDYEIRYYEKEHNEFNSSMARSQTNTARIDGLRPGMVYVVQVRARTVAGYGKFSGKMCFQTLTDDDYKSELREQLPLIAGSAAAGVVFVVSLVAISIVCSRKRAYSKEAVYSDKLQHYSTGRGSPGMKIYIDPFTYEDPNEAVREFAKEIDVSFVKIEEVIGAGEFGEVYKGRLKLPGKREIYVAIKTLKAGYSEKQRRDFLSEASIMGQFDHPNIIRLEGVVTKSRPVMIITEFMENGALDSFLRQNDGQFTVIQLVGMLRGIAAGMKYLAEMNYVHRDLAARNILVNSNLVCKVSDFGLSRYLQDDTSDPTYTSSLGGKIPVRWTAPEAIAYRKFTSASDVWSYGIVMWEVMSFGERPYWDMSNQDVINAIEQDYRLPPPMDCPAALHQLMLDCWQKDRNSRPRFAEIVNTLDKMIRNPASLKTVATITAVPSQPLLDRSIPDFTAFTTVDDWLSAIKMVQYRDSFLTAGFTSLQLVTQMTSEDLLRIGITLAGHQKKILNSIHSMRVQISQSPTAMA
The assay can be described thus: Selectivity interaction (KinomeScan (DiscoverX)) EUB0000618a EPHB1. The following applies: at 10 µM.

For assay [14], the target named is Mitogen-activated protein kinase 10 (Homo sapiens, UniProt P53779). Briefly: Selectivity interaction (KinomeScan (DiscoverX)) EUB0000092b MAPK10. Conditions: at 10 µM.
The target in assay [15] is T3, cAMP-dependent protein kinase catalytic subunit PRKX (Homo sapiens) (UniProt P51817).
T3 sequence (whole entry): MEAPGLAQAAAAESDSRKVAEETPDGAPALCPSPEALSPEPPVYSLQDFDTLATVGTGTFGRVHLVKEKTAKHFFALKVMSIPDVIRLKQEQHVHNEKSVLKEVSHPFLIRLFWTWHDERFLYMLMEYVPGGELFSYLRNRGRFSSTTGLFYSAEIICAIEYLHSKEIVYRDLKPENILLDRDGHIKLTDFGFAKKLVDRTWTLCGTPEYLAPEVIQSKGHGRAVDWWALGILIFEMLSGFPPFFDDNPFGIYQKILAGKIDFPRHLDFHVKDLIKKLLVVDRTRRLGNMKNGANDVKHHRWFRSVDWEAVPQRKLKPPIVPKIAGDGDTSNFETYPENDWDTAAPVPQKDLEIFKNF
The assay can be described thus: Selectivity interaction (KinomeScan (DiscoverX)) EUB0000229b PRKX. Conditions: at 10 µM.

Protein-tyrosine kinase 6, sequence (Q13882 whole entry, looked up): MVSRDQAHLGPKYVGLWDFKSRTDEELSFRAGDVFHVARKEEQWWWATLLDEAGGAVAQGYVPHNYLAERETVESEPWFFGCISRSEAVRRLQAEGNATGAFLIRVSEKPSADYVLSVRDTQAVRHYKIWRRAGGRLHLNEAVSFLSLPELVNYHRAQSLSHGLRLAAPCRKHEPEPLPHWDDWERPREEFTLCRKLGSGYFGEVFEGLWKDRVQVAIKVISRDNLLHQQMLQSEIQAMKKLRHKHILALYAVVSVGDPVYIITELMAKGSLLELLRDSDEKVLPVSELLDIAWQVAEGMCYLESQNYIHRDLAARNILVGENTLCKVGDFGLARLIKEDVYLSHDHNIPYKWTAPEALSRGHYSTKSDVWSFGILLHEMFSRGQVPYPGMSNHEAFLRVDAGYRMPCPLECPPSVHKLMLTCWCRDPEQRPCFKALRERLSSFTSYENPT
Platelet-derived growth factor receptor beta, sequence (P09619 whole entry): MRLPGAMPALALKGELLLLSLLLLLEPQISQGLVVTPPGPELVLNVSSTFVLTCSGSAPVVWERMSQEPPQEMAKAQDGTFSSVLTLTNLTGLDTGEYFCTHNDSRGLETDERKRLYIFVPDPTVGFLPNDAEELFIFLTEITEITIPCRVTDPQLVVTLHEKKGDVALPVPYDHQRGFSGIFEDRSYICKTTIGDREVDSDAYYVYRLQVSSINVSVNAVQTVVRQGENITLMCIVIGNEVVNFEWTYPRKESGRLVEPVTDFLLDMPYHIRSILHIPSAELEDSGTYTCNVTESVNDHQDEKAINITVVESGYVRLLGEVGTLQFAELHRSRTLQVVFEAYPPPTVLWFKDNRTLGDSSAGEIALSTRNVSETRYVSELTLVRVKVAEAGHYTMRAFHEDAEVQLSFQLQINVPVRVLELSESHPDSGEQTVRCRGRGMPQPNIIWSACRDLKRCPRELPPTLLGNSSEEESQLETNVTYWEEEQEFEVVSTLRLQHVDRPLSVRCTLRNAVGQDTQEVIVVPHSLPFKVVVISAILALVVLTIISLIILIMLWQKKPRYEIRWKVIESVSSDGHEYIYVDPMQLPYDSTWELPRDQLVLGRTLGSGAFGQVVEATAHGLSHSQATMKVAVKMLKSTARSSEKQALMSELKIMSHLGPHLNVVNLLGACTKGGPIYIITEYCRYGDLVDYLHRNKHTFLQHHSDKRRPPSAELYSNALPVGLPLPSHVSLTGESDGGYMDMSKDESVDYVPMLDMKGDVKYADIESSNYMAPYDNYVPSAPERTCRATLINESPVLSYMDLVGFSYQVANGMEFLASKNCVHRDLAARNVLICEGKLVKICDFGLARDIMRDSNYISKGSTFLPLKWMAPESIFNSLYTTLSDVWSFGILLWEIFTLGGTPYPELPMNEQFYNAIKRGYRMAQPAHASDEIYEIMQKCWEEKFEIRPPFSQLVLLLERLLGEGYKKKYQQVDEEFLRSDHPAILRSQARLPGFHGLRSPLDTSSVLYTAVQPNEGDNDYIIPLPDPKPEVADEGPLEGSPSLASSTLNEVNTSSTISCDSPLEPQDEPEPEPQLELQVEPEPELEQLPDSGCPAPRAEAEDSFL
Receptor tyrosine-protein kinase erbB-4, sequence (Q15303 whole entry): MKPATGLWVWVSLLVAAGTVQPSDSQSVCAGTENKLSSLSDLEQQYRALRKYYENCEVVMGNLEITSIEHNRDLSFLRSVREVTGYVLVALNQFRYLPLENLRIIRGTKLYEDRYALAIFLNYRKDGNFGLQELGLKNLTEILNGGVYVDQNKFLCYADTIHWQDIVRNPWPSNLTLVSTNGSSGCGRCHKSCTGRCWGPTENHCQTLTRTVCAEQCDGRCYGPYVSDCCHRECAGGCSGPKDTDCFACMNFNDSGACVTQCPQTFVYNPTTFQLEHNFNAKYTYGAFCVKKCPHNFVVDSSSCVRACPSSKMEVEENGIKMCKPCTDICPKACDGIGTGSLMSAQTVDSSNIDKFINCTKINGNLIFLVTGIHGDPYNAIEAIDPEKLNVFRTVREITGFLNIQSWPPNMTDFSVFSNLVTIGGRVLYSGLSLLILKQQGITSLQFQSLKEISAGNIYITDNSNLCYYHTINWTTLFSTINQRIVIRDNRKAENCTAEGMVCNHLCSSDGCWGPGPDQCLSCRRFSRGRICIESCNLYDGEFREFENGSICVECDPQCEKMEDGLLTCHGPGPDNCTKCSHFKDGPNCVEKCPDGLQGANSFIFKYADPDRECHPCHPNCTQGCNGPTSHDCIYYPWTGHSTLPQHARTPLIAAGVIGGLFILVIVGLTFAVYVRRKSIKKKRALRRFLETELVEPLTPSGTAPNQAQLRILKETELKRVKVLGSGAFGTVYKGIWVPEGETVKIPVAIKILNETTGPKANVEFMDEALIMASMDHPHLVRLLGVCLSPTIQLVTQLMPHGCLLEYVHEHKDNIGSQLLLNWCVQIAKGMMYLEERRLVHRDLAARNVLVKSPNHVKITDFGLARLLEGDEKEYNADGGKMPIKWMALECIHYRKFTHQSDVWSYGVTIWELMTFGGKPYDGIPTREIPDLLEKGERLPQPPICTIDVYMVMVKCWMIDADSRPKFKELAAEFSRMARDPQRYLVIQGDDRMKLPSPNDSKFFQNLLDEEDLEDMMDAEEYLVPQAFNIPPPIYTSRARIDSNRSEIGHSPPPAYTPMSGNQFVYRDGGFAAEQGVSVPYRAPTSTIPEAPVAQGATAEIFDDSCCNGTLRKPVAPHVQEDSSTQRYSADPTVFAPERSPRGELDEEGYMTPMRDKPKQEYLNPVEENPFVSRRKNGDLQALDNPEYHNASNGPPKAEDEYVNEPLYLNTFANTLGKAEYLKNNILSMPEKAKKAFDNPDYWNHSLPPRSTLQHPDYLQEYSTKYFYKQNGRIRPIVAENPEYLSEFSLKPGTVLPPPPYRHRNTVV
Bromodomain-containing protein 9 (Homo sapiens), sequence (Q9H8M2 whole entry, canonical isoform): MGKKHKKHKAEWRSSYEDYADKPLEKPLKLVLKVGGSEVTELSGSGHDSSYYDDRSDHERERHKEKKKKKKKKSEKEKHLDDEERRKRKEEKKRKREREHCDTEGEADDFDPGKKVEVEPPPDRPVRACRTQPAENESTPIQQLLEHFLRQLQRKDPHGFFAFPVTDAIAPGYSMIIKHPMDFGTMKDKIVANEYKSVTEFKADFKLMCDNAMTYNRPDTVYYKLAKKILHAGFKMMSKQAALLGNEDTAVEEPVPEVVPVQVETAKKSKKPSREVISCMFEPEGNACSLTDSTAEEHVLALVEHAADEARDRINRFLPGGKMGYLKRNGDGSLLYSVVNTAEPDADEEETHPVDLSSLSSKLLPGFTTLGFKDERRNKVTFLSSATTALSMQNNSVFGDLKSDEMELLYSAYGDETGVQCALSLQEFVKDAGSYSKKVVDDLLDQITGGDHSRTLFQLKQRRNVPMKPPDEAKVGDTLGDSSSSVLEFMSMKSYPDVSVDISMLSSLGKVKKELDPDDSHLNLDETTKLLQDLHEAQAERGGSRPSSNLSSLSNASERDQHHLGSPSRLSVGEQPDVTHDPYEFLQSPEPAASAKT
Vascular endothelial growth factor receptor 2, sequence (P35968 whole entry): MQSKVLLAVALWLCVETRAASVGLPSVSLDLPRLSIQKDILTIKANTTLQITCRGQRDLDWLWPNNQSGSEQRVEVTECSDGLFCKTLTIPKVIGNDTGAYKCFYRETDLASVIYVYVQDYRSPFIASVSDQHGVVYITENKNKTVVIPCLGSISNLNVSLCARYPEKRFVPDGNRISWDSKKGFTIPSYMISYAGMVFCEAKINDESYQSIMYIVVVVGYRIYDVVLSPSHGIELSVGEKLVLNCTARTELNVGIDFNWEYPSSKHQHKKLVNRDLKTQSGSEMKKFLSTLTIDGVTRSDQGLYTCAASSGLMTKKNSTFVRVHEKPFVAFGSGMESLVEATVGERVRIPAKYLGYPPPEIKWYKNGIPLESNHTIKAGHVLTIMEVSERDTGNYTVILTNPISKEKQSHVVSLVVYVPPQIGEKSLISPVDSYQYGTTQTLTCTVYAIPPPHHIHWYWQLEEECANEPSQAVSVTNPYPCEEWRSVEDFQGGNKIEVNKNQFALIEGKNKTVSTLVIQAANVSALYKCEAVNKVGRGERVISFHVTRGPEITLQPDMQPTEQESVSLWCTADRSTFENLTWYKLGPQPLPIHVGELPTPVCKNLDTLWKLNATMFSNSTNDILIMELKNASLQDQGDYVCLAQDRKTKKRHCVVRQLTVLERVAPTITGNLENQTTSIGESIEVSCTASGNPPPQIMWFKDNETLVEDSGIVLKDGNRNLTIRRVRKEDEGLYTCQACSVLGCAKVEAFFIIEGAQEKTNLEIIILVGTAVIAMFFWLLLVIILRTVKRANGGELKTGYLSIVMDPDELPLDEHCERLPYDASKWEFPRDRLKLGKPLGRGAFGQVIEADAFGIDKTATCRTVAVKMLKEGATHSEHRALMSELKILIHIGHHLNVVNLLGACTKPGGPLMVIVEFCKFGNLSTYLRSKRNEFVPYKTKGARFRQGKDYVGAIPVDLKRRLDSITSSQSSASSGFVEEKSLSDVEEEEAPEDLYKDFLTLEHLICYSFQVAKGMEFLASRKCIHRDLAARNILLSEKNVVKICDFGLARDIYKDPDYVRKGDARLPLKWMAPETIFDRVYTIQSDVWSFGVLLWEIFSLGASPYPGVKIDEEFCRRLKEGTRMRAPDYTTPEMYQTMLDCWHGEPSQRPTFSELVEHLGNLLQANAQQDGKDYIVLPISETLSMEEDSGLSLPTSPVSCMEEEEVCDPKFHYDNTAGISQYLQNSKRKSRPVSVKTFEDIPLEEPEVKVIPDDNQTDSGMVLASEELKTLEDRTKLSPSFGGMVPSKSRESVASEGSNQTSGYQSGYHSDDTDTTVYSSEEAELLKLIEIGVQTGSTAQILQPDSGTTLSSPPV

`Cn1cc(-n2cnc3c(NCc4nc5cc(Cl)c(Cl)cc5[nH]4)nc(N4CCOCC4)nc32)cn1`: the % of control in assay [1] is -13.3%. Turning to `COCC(=O)NC/C=C/c1ccc2ncnc(Nc3ccc(Oc4ccc(C)nc4)c(C)c3)c2c1` [CP-724714], the IC50 in assay [2] is greater than 10 µM. For `N#Cc1cccc(-c2c[nH]c3ncnc(N4CCOCC4)c23)c1`, the % of inhibition in assay [3] was -2%.

`CC(=O)c1cc(-c2ccccc2OCC2CC2)c2ncccn12`: the % of control in assay [4] stood at 103%. With `Cc1cc([C@@H](C)Nc2ccccc2C(=O)O)c2nc(N3CCOCC3)cc(=O)n2c1` [AZD-6482], the figures for the % of control in assay [5] and in [6] were 90% and 100%, respectively. As to `C=CC(=O)Nc1cccc(C(=O)Nc2ccc(Nc3cc(-c4[nH]c(SC)nc4C)ccn3)cc2)c1`, the % of control in assay [7] (at 1 µM) was 92%; in assay [7] (at 5 µM) it was 111%; in [8] (at 1 µM) it was 101%; in assay [8] (at 5 µM) it was 105%. Regarding `CN(C)C/C=C/C(=O)Nc1ccc(C(=O)N2CCCC(Nc3ncc(Cl)c(-c4c[nH]c5ccccc45)n3)C2)cc1` (configuration not stated), the % of control in [9] is 82%.

With `Cc1ccc(-c2ccc3c(ccc4sc5c(c43)NC[C@@H](C)NC5=O)n2)cn1`, in [10], the % of inhibition was 32%. In the case of `Cc1cc(CN)cc(C)c1-c1ncn(C)c1-c1cncn1C`, the dTM in assay [11] is -1.14 K.

On to `O[C@H]1CC[C@H](Nc2ncc3nc(Nc4c(F)cc(F)cc4F)n([C@H]4CCOC4)c3n2)CC1`, for which the figures for the % of control in assay [12] and in [13] were 83% and 96%, respectively. For the compound `CCC(=O)N1CCN(c2ccc(-n3c(=O)ccc4cnc5ccc(-c6cnc7ccccc7c6)cc5c43)cc2C(F)(F)F)CC1`, the % of control in [14] was 31%.

Consider `COc1cc(N(C)c2ccnc3ccc(C(F)(F)F)cc23)cc(OC)c1OC`, for which, in assay [15], the % binding was 72%.
